Reference: ChEMBL document CHEMBL5724914, “Linking interpersonal differences in gut microbiota composition and drug biotransformation activity” (2024)

Experiments:
[1] = The drug is tested on WLS-027 corresponding to human gut metagenome with ENA study accession number: PRJEB37062 and ENA sample accession number: ERS12561744 for biotransformation under anaerobic condition. The drug concentrations were measured over 9 timepoints collected between 0 and 24 hours of incubation by liquid-chromatography-coupled mass spectrometry (LC–MS); conditions: 2 µM
[2] = The drug is tested on WLS-082 corresponding to human gut metagenome with ENA study accession number: PRJEB37062 and ENA sample accession number: ERS12561751 for biotransformation under anaerobic condition. The drug concentrations were measured over 9 timepoints collected between 0 and 24 hours of incubation by liquid-chromatography-coupled mass spectrometry (LC–MS); conditions: 2 µM
[3] = human gut metagenome, 24 h, 2 µM
[4] = human gut metagenome, 24 h, 2 µM; remark: listed apart in the source
[5] = human gut metagenome, 24 h, 2 µM; remark: listed apart in the source
[6] = human gut metagenome, 24 h, 2 µM; remark: listed apart in the source
[7] = The drug is tested on Z-027 corresponding to metagenome with ENA study accession number: PRJEB37062 and ENA sample accession number: ERS12561826 for biotransformation under anaerobic condition. The drug concentrations were measured over 9 timepoints collected between 0 and 24 hours of incubation by liquid-chromatography-coupled mass spectrometry (LC–MS); conditions: 2 µM
[8] = human gut metagenome, 24 h, 2 µM; remark: listed apart in the source
[9] = human gut metagenome, 24 h, 2 µM; remark: listed apart in the source
[10] = human gut metagenome, 24 h, 2 µM; remark: listed apart in the source
[11] = human gut metagenome, 24 h, 2 µM; remark: listed apart in the source
[12] = The drug is tested on Z-005 corresponding to metagenome with ENA study accession number: PRJEB37062 and ENA sample accession number: ERS12561805 for biotransformation under anaerobic condition. The drug concentrations were measured over 9 timepoints collected between 0 and 24 hours of incubation by liquid-chromatography-coupled mass spectrometry (LC–MS); conditions: 2 µM
[13] = human gut metagenome, 24 h, 2 µM; remark: listed apart in the source
[14] = human gut metagenome, 24 h, 2 µM; remark: listed apart in the source
[15] = The drug is tested on Z-016 corresponding to mouse gut metagenome with ENA study accession number: PRJEB37062 and ENA sample accession number: ERS12561815 for biotransformation under anaerobic condition. The drug concentrations were measured over 9 timepoints collected between 0 and 24 hours of incubation by liquid-chromatography-coupled mass spectrometry (LC–MS); conditions: 2 µM
[16] = The drug is tested on WLS-350 corresponding to human gut metagenome with ENA study accession number: PRJEB37062 and ENA sample accession number: ERS12561789 for biotransformation under anaerobic condition. The drug concentrations were measured over 9 timepoints collected between 0 and 24 hours of incubation by liquid-chromatography-coupled mass spectrometry (LC–MS); conditions: 2 µM
[17] = The drug is tested on WLS-007 corresponding to human gut metagenome with ENA study accession number: PRJEB37062 and ENA sample accession number: ERS12561742 for biotransformation under anaerobic condition. The drug concentrations were measured over 9 timepoints collected between 0 and 24 hours of incubation by liquid-chromatography-coupled mass spectrometry (LC–MS); conditions: 2 µM
[18] = human gut metagenome, 24 h, 2 µM; remark: listed apart in the source
[19] = The drug is tested on Z-004 corresponding to metagenome with ENA study accession number: PRJEB37062 and ENA sample accession number: ERS12561804 for biotransformation under anaerobic condition. The drug concentrations were measured over 9 timepoints collected between 0 and 24 hours of incubation by liquid-chromatography-coupled mass spectrometry (LC–MS); conditions: 2 µM
[20] = The drug is tested on Z-021 corresponding to metagenome with ENA study accession number: PRJEB37062 and ENA sample accession number: ERS12561820 for biotransformation under anaerobic condition. The drug concentrations were measured over 9 timepoints collected between 0 and 24 hours of incubation by liquid-chromatography-coupled mass spectrometry (LC–MS); conditions: 2 µM
Further: call rule not given here.

SMILES | Bacterial Biotransformation [1] | Bacterial Biotransformation [2] | Bacterial Biotransformation [3] | Bacterial Biotransformation [4] | Bacterial Biotransformation [5] | Bacterial Biotransformation [6] | Bacterial Biotransformation [7] | Bacterial Biotransformation [8] | Bacterial Biotransformation [9] | Bacterial Biotransformation [10] | Bacterial Biotransformation [11] | Bacterial Biotransformation [12] | Bacterial Biotransformation [13] | Bacterial Biotransformation [14] | Bacterial Biotransformation [15] | Bacterial Biotransformation [16] | Bacterial Biotransformation [17] | Bacterial Biotransformation [18] | Bacterial Biotransformation [19] | Bacterial Biotransformation [20]
COc1ccc2c(c1)c(CC(=O)O)c(C)n2C(=O)c1ccc(Cl)cc1 [INDOMETHACIN] | Compound metabolized | Compound NOT metabolized | Compound NOT metabolized | Compound metabolized | Compound metabolized | Compound metabolized | Compound metabolized | Compound metabolized | Compound metabolized | Compound metabolized | Compound metabolized | Compound NOT metabolized | Compound metabolized | Compound metabolized | Compound NOT metabolized | Compound metabolized | Compound metabolized | Compound metabolized | Compound NOT metabolized | Compound NOT metabolized
CC(CCc1ccccc1)NCC(O)c1ccc(O)c(C(N)=O)c1 (stereo not given) [LABETALOL] | Compound NOT metabolized | Compound NOT metabolized | Compound NOT metabolized | Compound NOT metabolized | Compound NOT metabolized | Compound metabolized | Compound metabolized | Compound NOT metabolized | Compound NOT metabolized | Compound NOT metabolized | Compound NOT metabolized | Compound NOT metabolized | Compound NOT metabolized | Compound metabolized | Compound NOT metabolized | Compound NOT metabolized | Compound NOT metabolized | Compound NOT metabolized | Compound NOT metabolized | Compound NOT metabolized
Nc1nnc(-c2cccc(Cl)c2Cl)c(N)n1 [LAMOTRIGINE] | Compound NOT metabolized | Compound NOT metabolized | Compound NOT metabolized | Compound NOT metabolized | Compound NOT metabolized | Compound metabolized | Compound NOT metabolized | Compound NOT metabolized | Compound metabolized | Compound NOT metabolized | Compound NOT metabolized | Compound NOT metabolized | Compound NOT metabolized | Compound NOT metabolized | Compound NOT metabolized | Compound NOT metabolized | Compound NOT metabolized | Compound NOT metabolized | Compound NOT metabolized | Compound NOT metabolized
OC(c1cc(C(F)(F)F)nc2c(C(F)(F)F)cccc12)C1CCCCN1 (stereo not given) [MEFLOQUINE] | Compound metabolized | Compound metabolized | Compound NOT metabolized | Compound metabolized | Compound metabolized | Compound metabolized | Compound NOT metabolized | Compound metabolized | Compound metabolized | Compound metabolized | Compound metabolized | Compound NOT metabolized | Compound NOT metabolized | Compound metabolized | Compound NOT metabolized | Compound NOT metabolized | Compound NOT metabolized | Compound metabolized | Compound NOT metabolized | Compound metabolized
CC(=O)O[C@]1(C(C)=O)CC[C@H]2[C@@H]3C=C(C)C4=CC(=O)CC[C@]4(C)[C@H]3CC[C@@]21C [MEGESTROL ACETATE] | Compound metabolized | Compound metabolized | Compound metabolized | Compound metabolized | Compound metabolized | Compound metabolized | Compound metabolized | Compound metabolized | Compound metabolized | Compound metabolized | Compound metabolized | Compound metabolized | Compound metabolized | Compound metabolized | Compound metabolized | Compound metabolized | Compound metabolized | Compound metabolized | Compound metabolized | Compound NOT metabolized
CC12CC3CC(C)(C1)CC(N)(C3)C2 [MEMANTINE] | Compound NOT metabolized | Compound NOT metabolized | Compound NOT metabolized | Compound NOT metabolized | Compound NOT metabolized | Compound NOT metabolized | Compound NOT metabolized | Compound NOT metabolized | Compound NOT metabolized | Compound NOT metabolized | Compound NOT metabolized | Compound NOT metabolized | Compound NOT metabolized | Compound NOT metabolized | Compound NOT metabolized | Compound NOT metabolized | Compound NOT metabolized | Compound NOT metabolized | Compound NOT metabolized | Compound NOT metabolized
